Results taken from ChEMBL document CHEMBL1201861, “Genomics of Drug Sensitity in Cancer screening data, Wellcome Trust Sanger Institute”.

Experiments:
Assay in all cases: cells
Format in all cases: functional, cell-based, Homo sapiens
TK-10 = details: Homo sapiens, TK-10;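 further: growth inhibition of TK-10 cells, read out in a cell viability assay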
Description: SANGER: Inhibition of human TK10 cell growth in a cell viability assay.

ES5 = details: Homo sapiens, ES5;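 further: growth inhibition of human ES5 cells, read out by a cell viability assay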
Description: SANGER: Inhibition of human ES5 cell growth in a cell viability assay.

LS-411N = details: Homo sapiens, LS-411N
U-266 = details: Homo sapiens, U-266
Description: SANGER: Inhibition of human U-266 cell growth in a cell viability assay.

NCI-H82 = details: Homo sapiens, NCI-H82;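 further: growth inhibition of NCI-H82 cells, measured with a cell viability readout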
Description: SANGER: Inhibition of human NCI-H82 cell growth in a cell viability assay.

EOL1 = details: Homo sapiens, EOL1;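 further: growth inhibition of EoL-1 cells, read out by a cell viability assay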
Description: SANGER: Inhibition of human EoL-1-cell cell growth in a cell viability assay.

EW-16 = details: Homo sapiens, EW-16;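 further: growth inhibition of human EW-16 cells, read out as cell viability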
Description: SANGER: Inhibition of human EW-16 cell growth in a cell viability assay.

LOX IMVI = details: Homo sapiens, LOX IMVI
Description: SANGER: Inhibition of human LOXIMVI cell growth in a cell viability assay.

C8166 = details: Homo sapiens, C8166;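 further: growth inhibition of human C8166 cells measured by a cell viability assay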
Description: SANGER: Inhibition of human C8166 cell growth in a cell viability assay.

PSN1 = details: Homo sapiens, PSN1;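 further: suppression of growth of human PSN1 cells, read out by a cell viability assay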
Description: SANGER: Inhibition of human PSN1 cell growth in a cell viability assay.

ES7 = details: Homo sapiens, ES7;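 further: growth inhibition of cultured human ES7 cells, read out as cell viability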
Description: SANGER: Inhibition of human ES7 cell growth in a cell viability assay.

SJSA-1 = details: Homo sapiens, SJSA-1;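 further: growth inhibition of human SJSA-1 cells, read out through a cell viability measurement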
Description: SANGER: Inhibition of human SJSA-1 cell growth in a cell viability assay.

LXF-289 cell line = details: Homo sapiens, LXF-289
Description: SANGER: Inhibition of human LXF-289 cell growth in a cell viability assay.

LNCaP-Clone-FGC = details: Homo sapiens, LNCaP-Clone-FGC
Description: SANGER: Inhibition of human LNCaP-Clone-FGC cell growth in a cell viability assay.

LB2518-MEL = details: Homo sapiens, LB2518-MEL;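 further: growth inhibition of human LB2518-MEL cells, measured with a cell viability assay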
Description: SANGER: Inhibition of human LB2518-MEL cell growth in a cell viability assay.

KY821 = details: Homo sapiens, KY821;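 further: growth inhibition of human KY821 cells, read out by a cell viability assay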
Description: SANGER: Inhibition of human KY821 cell growth in a cell viability assay.

NCI-H23 = details: Homo sapiens, NCI-H23;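 further: cell viability assay measuring growth inhibition of NCI-H23 cells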
Description: SANGER: Inhibition of human NCI-H23 cell growth in a cell viability assay.

KM-H2 = details: Homo sapiens, KM-H2;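 further: growth inhibition of KM-H2 cells, read out by a cell viability assay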
Description: SANGER: Inhibition of human KM-H2 cell growth in a cell viability assay.

BB65-RCC = details: Homo sapiens, BB65-RCC;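 further: growth inhibition of the cell line, measured with a cell viability assay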
Description: SANGER: Inhibition of human BB65-RCC cell growth in a cell viability assay.

MHH-NB-11 = details: Homo sapiens, MHH-NB-11;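 further: growth inhibition of human MHH-NB-11 cells, read out by a cell viability assay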
Description: SANGER: Inhibition of human MHH-NB-11 cell growth in a cell viability assay.

COLO-824 = details: Homo sapiens, COLO-824
Description: SANGER: Inhibition of human COLO-824 cell growth in a cell viability assay.

A3-KAW = details: Homo sapiens, A3-KAW;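 further: growth inhibition of human A3-KAW cells, read out with a cell viability assay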
Description: SANGER: Inhibition of human A3-KAW cell growth in a cell viability assay.

NCI-H1838 = details: Homo sapiens, NCI-H1838;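 further: growth inhibition of NCI-H1838 cells, determined with a cell viability readout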
Description: SANGER: Inhibition of human NCI-H1838 cell growth in a cell viability assay.

KNS-81-FD = details: Homo sapiens, KNS-81-FD;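 further: growth inhibition of KNS-81-FD cells, read out with a cell viability assay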
Description: SANGER: Inhibition of human KNS-81-FD cell growth in a cell viability assay.

IST-MEL1 = details: Homo sapiens, IST-MEL1;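 further: growth inhibition of the cell line, read out with a cell viability assay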
Description: SANGER: Inhibition of human IST-MEL1 cell growth in a cell viability assay.

DJM-1 = details: Homo sapiens, DJM-1;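 further: growth inhibition of human DJM-1 cells, read out by a cell viability assay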
Description: SANGER: Inhibition of human DJM-1 cell growth in a cell viability assay.

BB49-HNC = details: Homo sapiens, BB49-HNC;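 further: cell viability assay read-out, reported as inhibition of BB49-HNC cell growth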
Description: SANGER: Inhibition of human BB49-HNC cell growth in a cell viability assay.

MPP-89 = details: Homo sapiens, MPP-89;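 further: growth inhibition of human MPP-89 cells, read out with a cell viability assay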
Description: SANGER: Inhibition of human MPP-89 cell growth in a cell viability assay.

KG-1 = details: Homo sapiens, KG-1;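 further: growth inhibition of KG-1 cells, read out by a cell viability assay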
Description: SANGER: Inhibition of human KG-1 cell growth in a cell viability assay.

SF-539 = details: Homo sapiens, SF-539;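 further: Read-out is a cell viability assay, with IC50 reflecting inhibition of cell growth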
Description: SANGER: Inhibition of human SF539 cell growth in a cell viability assay.

OVCAR-4 = details: Homo sapiens, OVCAR-4;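 further: growth inhibition of human OVCAR-4 cells, measured with a cell viability assay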
Description: SANGER: Inhibition of human OVCAR-4 cell growth in a cell viability assay.

SK-N-FI = details: Homo sapiens, SK-N-FI;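 further: cell viability assay measuring growth inhibition of human SK-N-FI cells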
Description: SANGER: Inhibition of human SK-N-FI cell growth in a cell viability assay.

SW872 = details: Homo sapiens, SW872;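 further: growth inhibition of SW872 cells, read out by a viability assay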
Description: SANGER: Inhibition of human SW872 cell growth in a cell viability assay.

IST-MES1 = details: Homo sapiens, IST-MES1;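 further: growth inhibition of IST-MES1 cells, measured with a cell viability assay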
Description: SANGER: Inhibition of human IST-MES1 cell growth in a cell viability assay.

MZ2-MEL = details: Homo sapiens, MZ2-MEL;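 further: growth inhibition of MZ2-MEL cells read out with a cell viability assay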
Description: SANGER: Inhibition of human MZ2-MEL cell growth in a cell viability assay.

HOP-62 = details: Homo sapiens, HOP-62;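 further: cell growth inhibition determined with a viability assay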
Description: SANGER: Inhibition of human HOP-62 cell growth in a cell viability assay.

OMC-1 = details: Homo sapiens, OMC-1;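 further: growth inhibition of the OMC-1 cell line, measured by a cell viability assay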
Description: SANGER: Inhibition of human OMC-1 cell growth in a cell viability assay.

KNS-42 = details: Homo sapiens, KNS-42;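 further: growth inhibition of KNS-42 cells, read out with a cell viability assay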
Description: SANGER: Inhibition of human KNS-42 cell growth in a cell viability assay.

Mo = details: Homo sapiens, Mo
Description: SANGER: Inhibition of human Mo-T cell growth in a cell viability assay.

TE-5 = details: Homo sapiens, TE-5;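 further: inhibition of cell growth, read out by a cell viability assay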
Description: SANGER: Inhibition of human TE-5 cell growth in a cell viability assay.

GB-1 = details: Homo sapiens, GB-1;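 further: growth of GB-1 cells judged by a viability assay, IC50 marks the concentration inhibiting growth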
Description: SANGER: Inhibition of human GB-1 cell growth in a cell viability assay.

L-363 = details: Homo sapiens, L-363
Description: SANGER: Inhibition of human L-363 cell growth in a cell viability assay.

TE-9 = details: Homo sapiens, TE-9;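 further: cell growth inhibition, measured with a cell viability readout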
Description: SANGER: Inhibition of human TE-9 cell growth in a cell viability assay.

LU-134-A = details: Homo sapiens, LU-134-A
Description: SANGER: Inhibition of human LU-134-A cell growth in a cell viability assay.

K5 = details: Homo sapiens, K5
Description: SANGER: Inhibition of human K5 cell growth in a cell viability assay.

NCI-H510A = details: Homo sapiens, NCI-H510A;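 further: growth inhibition of NCI-H510A cells, read out with a cell viability assay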
Description: SANGER: Inhibition of human NCI-H510A cell growth in a cell viability assay.

NB6 = details: Homo sapiens, NB6;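 further: growth inhibition of NB6 cells, read out by a cell viability assay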
Description: SANGER: Inhibition of human NB6 cell growth in a cell viability assay.

LB771-HNC = details: Homo sapiens, LB771-HNC;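 further: growth inhibition of LB771-HNC human cells, read out with a cell viability assay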
Description: SANGER: Inhibition of human LB771-HNC cell growth in a cell viability assay.

RPMI-8866 = details: Homo sapiens, RPMI-8866
Description: SANGER: Inhibition of human RPMI-8866 cell growth in a cell viability assay.

C=C(c1ccc(C(=O)O)cc1)c1cc2c(cc1C)C(C)(C)CCC2(C)C [BEXAROTENE]
IC50 (TK-10): > 8 µM | IC50 (ES5): > 8 µM | IC50 (LS-411N): > 8 µM | IC50 (U-266): > 8 µM | IC50 (NCI-H82): > 8 µM | IC50 (EOL1): > 8 µM | IC50 (EW-16): > 8 µM | IC50 (LOX IMVI): > 8 µM | IC50 (C8166): > 8 µM | IC50 (PSN1): 4 µM | IC50 (ES7): > 8 µM | IC50 (SJSA-1): > 8 µM | IC50 (LXF-289 cell line): > 8 µM | IC50 (LNCaP-Clone-FGC): > 8 µM | IC50 (LB2518-MEL): > 8 µM | IC50 (KY821): > 8 µM | IC50 (NCI-H23): > 8 µM | IC50 (KM-H2): > 8 µM | IC50 (BB65-RCC): > 8 µM | IC50 (MHH-NB-11): > 8 µM | IC50 (COLO-824): > 8 µM | IC50 (A3-KAW): > 8 µM | IC50 (NCI-H1838): > 8 µM | IC50 (KNS-81-FD): > 8 µM | IC50 (IST-MEL1): > 8 µM | IC50 (DJM-1): > 8 µM | IC50 (BB49-HNC): > 8 µM | IC50 (MPP-89): > 8 µM | IC50 (KG-1): > 8 µM | IC50 (SF-539): > 8 µM | IC50 (OVCAR-4): > 8 µM | IC50 (SK-N-FI): > 8 µM | IC50 (SW872): > 8 µM | IC50 (IST-MES1): > 8 µM | IC50 (MZ2-MEL): > 8 µM | IC50 (HOP-62): > 8 µM | IC50 (OMC-1): > 8 µM | IC50 (KNS-42): > 8 µM | IC50 (Mo): > 8 µM | IC50 (TE-5): > 8 µM | IC50 (GB-1): > 8 µM | IC50 (L-363): > 8 µM | IC50 (TE-9): > 8 µM | IC50 (LU-134-A): > 8 µM | IC50 (K5): > 8 µM | IC50 (NCI-H510A): > 8 µM | IC50 (NB6): > 8 µM | IC50 (LB771-HNC): 2.5 µM | IC50 (RPMI-8866): > 8 µM

Nc1cccc2c1CN(C1CCC(=O)NC1=O)C2=O (configuration not stated) [LENALIDOMIDE]
IC50 (TK-10): > 5 µM | IC50 (ES5): > 5 µM | IC50 (LS-411N): > 5 µM | IC50 (U-266): > 5 µM | IC50 (NCI-H82): > 5 µM | IC50 (EOL1): 4.11 µM | IC50 (EW-16): > 5 µM | IC50 (LOX IMVI): > 5 µM | IC50 (C8166): > 5 µM | IC50 (PSN1): > 5 µM | IC50 (ES7): > 5 µM | IC50 (SJSA-1): > 5 µM | IC50 (LXF-289 cell line): > 5 µM | IC50 (LNCaP-Clone-FGC): > 5 µM | IC50 (LB2518-MEL): > 5 µM | IC50 (KY821): > 5 µM | IC50 (NCI-H23): > 5 µM | IC50 (KM-H2): > 5 µM | IC50 (BB65-RCC): > 5 µM | IC50 (MHH-NB-11): > 5 µM | IC50 (COLO-824): > 5 µM | IC50 (A3-KAW): > 5 µM | IC50 (NCI-H1838): > 5 µM | IC50 (KNS-81-FD): > 5 µM | IC50 (IST-MEL1): > 5 µM | IC50 (DJM-1): > 5 µM | IC50 (BB49-HNC): > 5 µM | IC50 (MPP-89): > 5 µM | IC50 (KG-1): > 5 µM | IC50 (SF-539): > 5 µM | IC50 (OVCAR-4): > 5 µM | IC50 (SK-N-FI): > 5 µM | IC50 (SW872): > 5 µM | IC50 (IST-MES1): > 5 µM | IC50 (MZ2-MEL): > 5 µM | IC50 (HOP-62): > 5 µM | IC50 (OMC-1): > 5 µM | IC50 (KNS-42): > 5 µM | IC50 (Mo): > 5 µM | IC50 (TE-5): > 5 µM | IC50 (GB-1): > 5 µM | IC50 (L-363): 2.92 µM | IC50 (TE-9): > 5 µM | IC50 (LU-134-A): > 5 µM | IC50 (K5): > 5 µM | IC50 (NCI-H510A): > 5 µM | IC50 (NB6): > 5 µM | IC50 (LB771-HNC): 2.15 µM | IC50 (RPMI-8866): > 5 µM

COc1cc2ncn(-c3cc(OCc4ccccc4C(F)(F)F)c(C(N)=O)s3)c2cc1OC [GW843682X]
IC50 (TK-10): 0.0909 µM | IC50 (ES5): > 0.256 µM | IC50 (LS-411N): 0.008 µM | IC50 (U-266): 0.0698 µM | IC50 (NCI-H82): 0.0152 µM | IC50 (EOL1): 0.0423 µM | IC50 (EW-16): 0.0133 µM | IC50 (LOX IMVI): 0.125 µM | IC50 (C8166): > 0.256 µM | IC50 (PSN1): 0.00583 µM | IC50 (ES7): > 0.256 µM | IC50 (SJSA-1): 0.0327 µM | IC50 (LXF-289 cell line): 0.0162 µM | IC50 (LNCaP-Clone-FGC): > 0.256 µM | IC50 (LB2518-MEL): 0.107 µM | IC50 (KY821): 0.0159 µM | IC50 (NCI-H23): > 0.256 µM | IC50 (KM-H2): 0.0205 µM | IC50 (BB65-RCC): 0.0689 µM | IC50 (MHH-NB-11): 0.227 µM | IC50 (COLO-824): > 0.256 µM | IC50 (A3-KAW): 0.0517 µM | IC50 (NCI-H1838): > 0.256 µM | IC50 (KNS-81-FD): > 0.256 µM | IC50 (IST-MEL1): 0.0288 µM | IC50 (DJM-1): 0.0606 µM | IC50 (BB49-HNC): > 0.256 µM | IC50 (MPP-89): 0.226 µM | IC50 (KG-1): > 0.256 µM | IC50 (SF-539): > 0.256 µM | IC50 (OVCAR-4): 0.0715 µM | IC50 (SK-N-FI): 0.232 µM | IC50 (SW872): 0.0277 µM | IC50 (IST-MES1): 0.159 µM | IC50 (MZ2-MEL): 0.126 µM | IC50 (HOP-62): 0.0448 µM | IC50 (OMC-1): > 0.256 µM | IC50 (KNS-42): 0.0247 µM | IC50 (Mo): > 0.256 µM | IC50 (TE-5): 0.0234 µM | IC50 (GB-1): 0.0275 µM | IC50 (L-363): 0.0812 µM | IC50 (TE-9): 0.0213 µM | IC50 (LU-134-A): 0.119 µM | IC50 (K5): 0.0727 µM | IC50 (NCI-H510A): 0.0166 µM | IC50 (NB6): 0.142 µM | IC50 (LB771-HNC): 0.06 µM | IC50 (RPMI-8866): > 0.256 µM
